# Laboratory results taken from PMC12126525, “Mechanism of ATP hydrolysis in the Hsp70 BiP nucleotide-binding domain” (Nature Communications, 2025).
# Values joined by “and” are separate entries in the source; they are usually repeats but may differ in a detail not shown here. Equal values may be shown once.
# Experiments:
# BiP NBD [1] = molecular target: T1, BiP NBD (Homo sapiens, UniProt P11021); assay: Global kinetic fit (MCMC) of four NMR data sets (E1+E2, E1 only, E2 only, no recycling): functional cycle kinetic parameters; type: biochemical; design: His6 (N, cleaved yes); made in house; host or cells: E. coli BL21-(DE3)-Lemo, pET28a vector; conditions: for Kd: standard buffer
# Text: It comprises 5 different states that are connected by […] reaction equations of first and second order. We consider ATP hydrolysis an irreversible reaction without backreaction. The other pathways are reversible dissociation/association reactions, arbitrarily labeled 1–5. The microscopic equations (elementary reactions) for these 11 reactions are given by:1 NBD^ATPkcat→NBD^ADP⋅Pi 2 NBD^ATPkoff1⇌kon1NBD^apo+ATP 3 NBD^ADPkoff2⇌kon2NBD^apo+ADP 4 NBD^Pikoff3⇌kon3NBD^apo+Pi 5 NBD^ADP⋅Pikoff4⇌kon4NBD^ADP+Pi 6 NBD^ADP⋅Pikoff5⇌kon5NBD^Pi+ADP With the forward and backward kinetic rate constants connected by thermodynamic equilibrium dissociation constants given by7 koffi/koni=KDifori=1,…,5 For each of the 5 states, a differential equation describing the conservation of mass can be derived:8 d/dtNBD^apo=+koff1NBD^ATP+koff2NBD^ADP+koff3NBD^Pi−kon1NBD^apoATP−kon2NBD^apoADP−kon3NBD^apoPi 9 d/dt[NBD^ATP]=+kon1NBD^apoATP−koff1NBD^ATP−kcatNBD^ATP 10 d/dtNBD^ADP⋅Pi=+kcatNBD^ATP+kon4NBD^ADPPi+kon5NBD^PiADP−koff4NBD^ADP⋅Pi−koff5NBD^ADP⋅Pi 11 d/dtNBD^ADP=+koff4NBD^ADP⋅Pi+kon2NBD^apoADP−koff2NBD^ADP−kon4NBD^ADPPi 12 d/dtNBD^Pi=+koff5NBD^ADP⋅Pi+kon3NBD^apoPi−koff3NBD^Pi−kon5NBD^PiADP Furthermore, we have the total amount13 NBD^apo+NBD^ATP+NBD^ADP+NBD^ADP⋅Pi+NBD^Pi=NBD0 These equations can be used for numerical fitting of steady-state and non-steady-state experimental data.
# The experimental data of the BiP NBD in-cyclo experiments were fitted using standard reaction kinetics. Free variables were the kon and koff rates for the five reversible reaction and the catalytic rate constant (kcat) for the irreversible ATP hydrolysis step (See theory section). The initial values for kcat , koff2 , koff4 and koff5 were set to the value determined experimentally with in-cyclo experiment. The initial value for koff3 was taken from the EXSY experiment and the initial range for koff1 and KD1 were taken from the literature. […] The prior distributions were defined based on the average state occupancy resolved from the in-cyclo experiment: tNBD·ADP, tNBD, tNBD·ADP·Pi and tNBD·Pi. Numerical integration of the corresponding differential equations for the reaction scheme (described in Fig. 2a) was performed using a custom Python module (Kinetic).
# To fully determine all kinetic parameters, the data fitting procedure was conducted as a global fit of four independent experimental datasets: (i) the in-cyclo experiment with ATP regeneration and phosphate removal, (ii) ATP regeneration only, (iii) single batch experiments starting from pure ATP with the phosphate removal system, and (iv) single batch experiments starting from pure ATP.
# Fitting of the functional cycle kinetic parameters. a-d, Global fit of the experimental data presented in the manuscript E1 +E2 (a), E1 (b), E2 (c), no recycling system (d). Data points are shown as circles NBD·ADP (blue), NBD·ADP·PI (dark blue) and NBD·ATP (red) (left) and pyruvate (grey), glucose-1-P (lavender), ATP (red) and ADP (blue) (right). The fit of the data is shown as lines in the same color as the data points. Data points and standard deviation for three independent experiments. e, Numerical stability of the global fitting of the experimental data.
# BiP NBD [2] = molecular target: T1, BiP NBD; assay: Exchange spectroscopy (EXSY) NMR of NBD apo / NBD·Pi exchange; type: binding; design: His6 (N, cleaved yes); made in house; host or cells: E. coli BL21-(DE3)-Lemo, pET28a vector; conditions: 25 °C, 400 μM BiP NBD, 200 μM phosphate
# Description: ^13C-edited 2D Exchange Spectroscopy (EXSY) experiments were acquired to characterize the exchange between the NBD apo and NDB·Pi state (k3on, k3off). For this purpose, we used a modified methyl-TROSY experiment with an additional EXSY element prior to acquisition (90° ^1H – EXSY mixing delay – 90° ^1H)[49]. A recycle delay of 1 s was used in all experiments. The EXSY mixing times were set to 5, 50, 100, 200, 300, 400, 500, 600, 800, 1000, 1250, 1500 ms, with an average acquisition time of 120 min for each spectrum. The EXSY experiments were performed at 25 °C with a [U-^2H, ^15N, ^12C], Met-[^13CH3]^ε and Ile-[^13CH3]^δ1 BiP NBD sample at 400 μM in NMR buffer (25 mM HEPES, pH 7.5, 150 mM KCl and 20 mM MgCl2) with 200 μM of phosphate.
# BiP = conditions: cited from earlier work
# [3] = Supplementary Fig 10a, time 5 min
# [4] = Supplementary Fig 10a, time 11 min
# [5] = Supplementary Fig 10a, time 17 min
# [6] = Supplementary Fig 10a, time 23 min
# [7] = Supplementary Fig 10a, time 29 min
# [8] = Supplementary Fig 10a, time 35 min
# [9] = Supplementary Fig 10a, time 41 min
# [10] = Supplementary Fig 10a, time 47 min
# [11] = Supplementary Fig 10a, time 53 min
# [12] = Supplementary Fig 10a, time 59 min
# [13] = Supplementary Fig 10a, time 65 min
# [14] = Supplementary Fig 10a, time 71 min
# [15] = Supplementary Fig 10b, time 10 min
# [16] = Supplementary Fig 10b, time 16 min
# [17] = Supplementary Fig 10b, time 22 min
# [18] = Supplementary Fig 10b, time 28 min
# [19] = Supplementary Fig 10b, time 34 min
# [20] = Supplementary Fig 10b, time 40 min
# [21] = Supplementary Fig 10b, time 46 min
# [22] = Supplementary Fig 10b, time 52 min
# [23] = Supplementary Fig 10b, time 58 min
# [24] = Supplementary Fig 10b, time 64 min
# [25] = Supplementary Fig 10b, time 70 min
# [26] = Supplementary Fig 10c, time 5 min
# [27] = Supplementary Fig 10c, time 11 min
# [28] = Supplementary Fig 10c, time 17 min
# [29] = Supplementary Fig 10c, time 23 min
# [30] = Supplementary Fig 10c, time 29 min
# [31] = Supplementary Fig 10c, time 35 min
# [32] = Supplementary Fig 10c, time 41 min
# [33] = Supplementary Fig 10c, time 47 min
# [34] = Supplementary Fig 10c, time 53 min
# [35] = Supplementary Fig 10d, time 5 min
# [36] = Supplementary Fig 10d, time 11 min
# [37] = Supplementary Fig 10d, time 17 min
# [38] = Supplementary Fig 10d, time 23 min
# [39] = Supplementary Fig 10d, time 29 min
# [40] = Supplementary Fig 10d, time 35 min
# [41] = Supplementary Fig 10d, time 41 min
# [42] = Supplementary Fig 10d, time 47 min
# [43] = Supplementary Fig 10d, time 53 min
# [44] = reactions 1-3 (koff1, koff2, koff3): release from binary complex, T = 37 °C
# [45] = reactions 1-3: binding to apo NBD, T = 37 °C
# [46] = reactions 1-3: ligand leaving the binary complex to give apo NBD, T = 37 °C
# T1 sequence (P11021 19-406): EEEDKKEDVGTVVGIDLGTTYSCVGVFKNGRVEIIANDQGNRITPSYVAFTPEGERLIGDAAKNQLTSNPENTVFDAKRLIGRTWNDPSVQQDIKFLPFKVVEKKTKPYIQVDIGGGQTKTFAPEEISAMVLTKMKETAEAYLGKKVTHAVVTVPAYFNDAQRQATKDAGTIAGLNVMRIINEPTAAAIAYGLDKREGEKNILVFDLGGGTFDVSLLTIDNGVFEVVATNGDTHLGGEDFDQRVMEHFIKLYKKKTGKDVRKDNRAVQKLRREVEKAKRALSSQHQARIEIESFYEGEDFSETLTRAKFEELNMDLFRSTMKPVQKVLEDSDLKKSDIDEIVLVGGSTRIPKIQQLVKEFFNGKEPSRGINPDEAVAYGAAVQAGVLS
smiles,measurement,setting,value
Nc1ncnc2c1ncn2[C@@H]1O[C@H](COP(=O)(O)OP(=O)(O)OP(=O)(O)O)[C@@H](O)[C@H]1O [ATP],kcat,"BiP NBD [1]; NBD·ATP → NBD·ADP·Pi, T = 37 °C",0.065 ± 0.013 s⁻¹ and 0.065 ± 0.01 s⁻¹
same,species,BiP NBD [1]; [3],4931 µM
same,species,BiP NBD [1]; [4],4934 µM
same,species,BiP NBD [1]; [5],4884 µM
same,species,BiP NBD [1]; [6],4899 µM
same,species,BiP NBD [1]; [7],4939 µM
same,species,BiP NBD [1]; [8],4943 µM
same,species,BiP NBD [1]; [9],4963 µM
same,species,BiP NBD [1]; [10],4978 µM
same,species,BiP NBD [1]; [11],5001 µM
same,species,BiP NBD [1]; [12],5024 µM
same,species,BiP NBD [1]; [13],5048 µM
same,species,BiP NBD [1]; [14],5079 µM
same,species,BiP NBD [1]; [15],5016 µM
same,species,BiP NBD [1]; [16],4951 µM
same,species,BiP NBD [1]; [17],4989 µM
same,species,BiP NBD [1]; [18],4949 µM
same,species,BiP NBD [1]; [19],5005 µM
same,species,BiP NBD [1]; [20],4923 µM
same,species,BiP NBD [1]; [21],4996 µM
same,species,BiP NBD [1]; [22],4916 µM
same,species,BiP NBD [1]; [23],4954 µM
same,species,BiP NBD [1]; [24],4989 µM
same,species,BiP NBD [1]; [25],4937 µM
same,species,BiP NBD [1]; [26],4151 µM
same,species,BiP NBD [1]; [27],3560 µM
same,species,BiP NBD [1]; [28],3077 µM
same,species,BiP NBD [1]; [29],2698 µM
same,species,BiP NBD [1]; [30],1801 µM
same,species,BiP NBD [1]; [31],1548 µM
same,species,BiP NBD [1]; [32],1183 µM
same,species,BiP NBD [1]; [33],1030 µM
same,species,BiP NBD [1]; [34],902 µM
same,kcat fitted average,"BiP NBD [1]; Supplementary Fig 11b, fitted",0.065 s⁻¹
same,species,BiP NBD [1]; [35],4064 µM
same,species,BiP NBD [1]; [36],3620 µM
same,species,BiP NBD [1]; [37],3330 µM
same,species,BiP NBD [1]; [38],3106 µM
same,species,BiP NBD [1]; [39],2931 µM
same,species,BiP NBD [1]; [40],2788 µM
same,species,BiP NBD [1]; [41],2663 µM
same,species,BiP NBD [1]; [42],2548 µM
same,species,BiP NBD [1]; [43],2448 µM
same,factor by which ATP unbinding is rarer than ATP hydrolysis,BiP NBD [1]; koff1 versus kcat,5 times
same,koff,BiP NBD [1]; [44],0.012 ± 0.003 s⁻¹
same,kon,BiP NBD [1]; [45],32000 ± 9000 M⁻¹ s⁻¹
same,Kd,BiP NBD [1]; [46],0.38 ± 0.12 µM
O=P(O)(O)O [Pi],koff3 (EXSY),BiP NBD [2],1.32 ± 0.31 s⁻¹
same,kon3 (EXSY),BiP NBD [2],5000 ± 2000 M⁻¹ s⁻¹
same,species,BiP NBD [1]; [3],25 µM
same,species,BiP NBD [1]; [4],25 µM
same,species,BiP NBD [1]; [5],25 µM
same,species,BiP NBD [1]; [6],25 µM
same,species,BiP NBD [1]; [7],25 µM
same,species,BiP NBD [1]; [8],25 µM
same,species,BiP NBD [1]; [9],25 µM
same,species,BiP NBD [1]; [10],25 µM
same,species,BiP NBD [1]; [11],25 µM
same,species,BiP NBD [1]; [12],25 µM
same,species,BiP NBD [1]; [13],25 µM
same,species,BiP NBD [1]; [14],25 µM
same,species,BiP NBD [1]; [15],1011 µM
same,species,BiP NBD [1]; [16],1602 µM
same,species,BiP NBD [1]; [17],2255 µM
same,species,BiP NBD [1]; [18],2820 µM
same,species,BiP NBD [1]; [19],3384 µM
same,species,BiP NBD [1]; [20],3735 µM
same,species,BiP NBD [1]; [21],4207 µM
same,species,BiP NBD [1]; [22],4544 µM
same,species,BiP NBD [1]; [23],4962 µM
same,species,BiP NBD [1]; [24],5335 µM
same,species,BiP NBD [1]; [25],5727 µM
same,species,BiP NBD [1]; [26],25 µM
same,species,BiP NBD [1]; [27],25 µM
same,species,BiP NBD [1]; [28],25 µM
same,species,BiP NBD [1]; [29],25 µM
same,species,BiP NBD [1]; [30],25 µM
same,species,BiP NBD [1]; [31],25 µM
same,species,BiP NBD [1]; [32],25 µM
same,species,BiP NBD [1]; [33],25 µM
same,species,BiP NBD [1]; [34],25 µM
same,species,BiP NBD [1]; [35],936 µM
same,species,BiP NBD [1]; [36],1380 µM
same,species,BiP NBD [1]; [37],1670 µM
same,species,BiP NBD [1]; [38],1894 µM
same,species,BiP NBD [1]; [39],2069 µM
same,species,BiP NBD [1]; [40],2212 µM
same,species,BiP NBD [1]; [41],2337 µM
same,species,BiP NBD [1]; [42],2452 µM
same,species,BiP NBD [1]; [43],2552 µM
same,rate of phosphate release relative to ADP release from the ADP·Pi-bound state,BiP NBD [1]; koff4 versus koff5,2.5 times
same,koff,BiP NBD [1]; [44],1.3 ± 0.2 s⁻¹
same,kon,BiP NBD [1]; [45],5000 ± 1000 M⁻¹ s⁻¹
same,Kd,BiP NBD [1]; [46],260 ± 20 µM
same,koff,"BiP NBD [1]; reactions 4, 5 (koff4, koff5): release from NBD·ADP·Pi, T = 37 °C",0.047 ± 0.01 s⁻¹
same,kon,"BiP NBD [1]; reactions 4, 5: Pi binding to NBD·ADP, ADP binding to NBD·Pi, T = 37 °C",200 ± 60 M⁻¹ s⁻¹
same,Kd,"BiP NBD [1]; reactions 4, 5: one ligand leaving NBD·ADP·Pi, the other stays bound, T = 37 °C",235 ± 50 µM
[Ca+2] [calcium],increase of the MABA-ADP-bound lifetime,BiP; concentration-dependent,up to 4 fold
same,decrease of the ATP hydrolysis rate of BiP,BiP; physiological calcium levels compared to no calcium,2 fold
